Measurements published in patent US20260347409A1, “CHEMICALLY MODIFIED POLYPEPTIDE” (SUZHOU GLENKOL PHARMA TECHNOLOGY CO., LTD., priority 2023, published 2026).
Where a SMILES comes first, the peptide text is derived from it. Where no end group is shown, it is not given here. [ ]: non-standard residue; d: D form. The star is where a group is joined. pY = N[C@@H](Cc1ccc(OP(=O)(O)O)cc1)C(=O)O; NMeY = CN[C@@H](Cc1ccc(O)cc1)C(=O)O; Palmitoyl = CCCCCCCCCCCCCCCC(=O)*; Tle = CC(C)(C)[C@H](N)C(=O)O

Legend:
[1] = tested on: PC-12 cells; assay: Cell viability of PC-12 neural cells under glutamate stimulation (excitotoxic cell death model, propidium iodide/Hoechst staining); format: cell-based, rat; settings: for Normalized cell viability (%): 10 nM compound, 30 min pretreatment, then glutamate stimulation 24 h, normalized to positive control MK-801; for EC50: dose-response relationship in promoting the viability of PC-12 neurons, glutamate stimulation
Method: 1.1. Culture of PC-12 Cell Line and Establishment of Excitotoxic Cell Death Model
PC-12 cells (a […] cell line derived from rat adrenal medulla) were cultured in DMEM/F12 complete medium until eaching 80-90% confluence. The cells were then digested, collected, resuspended, and seeded at density of 5×10^4 cells per well in a 24-well plate precoated with coverslips. Following 26 hours of cell culture, excitotoxic cell death was induced by glutamate stimulation. For model establishment: an appropriate amount of glutamate was weighed and dissolved in DMEM/F12 medium to prepare a stock solution. After filtration, the stock solution was diluted with culture medium and administered to the cells via medium replacement. The cells were further incubated for 24 hours after administration.
1.2 Administration of Small Molecules
Prior to glutamate modeling, cells incubated as described in the previous step were pretreated with 10 nM of the polypeptide compound according to the present application for 30 minutes, followed by glutamate stimulation.
1.3. Propidium Iodide Staining
Cells treated with the polypeptide compound according to the present application were stained with propidium iodide to assess cell death. After discarding the culture medium, the cells were washed with PBS, and propidium iodide/Hoechst was added. After incubating for 30 minutes, the cells were removed and the staining solution was discarded. After washing with PBS, the cells were fixed and mounted, and subjected to image acquisition under a fluorescence microscope. The number of propidium iodide-positive cells and Hoechst-positive cells in the acquired images was counted to calculate the cell viability. MK-801 was used as the positive control compound. The normalized cell viability was calculated using the following formula: (cell viability of the compound group −cell viability of the glutamate group)/(cell viability of the positive control group −cell viability of the glutamate group)×100%.
Based on the above dose-response studies of the compound, the inhibitory effects of different small-molecule compounds at the same dose (10 nM) against excitotoxic death in PC-12 neurons cells were further compared.
Based on this, the dose-response relationship of the neuroprotective effect of the polypeptide compounds according to the present application on PC-12 neural cells was analyzed.

[2] = Pharmacokinetic characteristics in rats after intravenous administration (plasma, LC-MS/MS); format: in vivo; settings: SD rats, intravenous (tail vein), 10 mg/kg; for MRT inf: rat
Method: Experimental Example 2: Pharmacokinetic Characteristics of Various Compounds in Rats
Intravenous administration: Three SD rats per group were administered the compounds of Example 1, Example 2, Example 3, Example 6, Example 7, Example 17, and Example 19 via the tail vein, respectively, at a dose of 10 mg/kg. all SD rats were allowed free access to food and water after administration. Plasma was collected 3 min, 10 min, 30 min, 1 h, 2 h, 6 h, 10 h, and 24 h after administration, with 3 rats per time point.
Sample processing: Whole blood was anticoagulated with EDTA-K2. Within 30 minutes of collection, the blood was centrifuged at 3000 g for 10 minutes at 2-8 °C. After centrifugation, the separated plasma was transferred to new 1.5 mL centrifuge tubes and stored at −80 °C.
Analytical method: The concentrations of each compounds in rat plasma were determined by LC-MS/MS using Shimadzu LC30AD and AB Sciex QTRAP 6500+instruments. The relevant pharmacokinetic parameters after administration were calculated.

| Compound | Normalized cell viability (%) [1] [%] | EC50 [1] [nM] | T1/2 [2] [h] | Vss [2] [L/kg] | MRT inf [2] [h] |
| --- | --- | --- | --- | --- | --- |
| YGRKKRRQRRRKKNRNKLRRQHSY [Example 1, reference compound] | 41.00 | 23.6 | 0.76 | 1.29 | 0.87 |
| CCCCCCCCCCCCCCCC(=O)NCCOCCOCC(=O)NCCCC[C@H](NC(=O)[C@H](CCCNC(=N)N)NC(=O)[C@H](CCCNC(=N)N)NC(=O)[C@H](CCCNC(=N)N)NC(=O)[C@H](CCC(N)=O)NC(=O)[C@H](CCCNC(=N)N)NC(=O)[C@H](CCCNC(=N)N)NC(=O)[C@H](CCCCN)NC(=O)[C@H](CCCCN)NC(=O)[C@H](CCCNC(=N)N)NC(=O)CNC(=O)[C@@H](N)Cc1ccc(O)cc1)C(=O)N[C@@H](CCCCN)C(=O)N[C@@H](CC(N)=O)C(=O)N[C@@H](CCCNC(=N)N)C(=O)N[C@@H](CC(N)=O)C(=O)N[C@@H](CCCCN)C(=O)N[C@@H](CC(C)C)C(=O)N[C@@H](CCCNC(=N)N)C(=O)N[C@@H](CCCNC(=N)N)C(=O)N[C@@H](CCC(N)=O)C(=O)N[C@@H](Cc1c[nH]cn1)C(=O)N[C@@H](CO)C(=O)N[C@@H](Cc1ccc(O)cc1)C(=O)O [Example 14, YGRKKRRQRRRK(N-AEEA-Palmitic acid)KNRNKLRRQHSY] | 84.14 |  |  |  |  |
| Ac-YGRKKRRQRRRKKNRNKLRRQHSY-NH2 [Example 7] |  | 8.72 | 1.51 | 3.58 | 1.93 |
| YGRKKRRQRRRKKNRNKLRRQHSY-NH2 [Example 6] |  | 13.5 | 1.23 | 2.53 | 1.65 |
| CCCCCCCCCCCCCCCC(=O)N[C@@H](Cc1ccc(O)cc1)C(=O)NCC(=O)N[C@@H](CCCNC(=N)N)C(=O)N[C@@H](CCCCN)C(=O)N[C@@H](CCCCN)C(=O)N[C@@H](CCCNC(=N)N)C(=O)N[C@@H](CCCNC(=N)N)C(=O)N[C@@H](CCC(N)=O)C(=O)N[C@@H](CCCNC(=N)N)C(=O)N[C@@H](CCCNC(=N)N)C(=O)N[C@@H](CCCNC(=N)N)C(=O)N[C@@H](CCCCN)C(=O)N[C@@H](CCCCN)C(=O)N[C@@H](CC(N)=O)C(=O)N[C@@H](CCCNC(=N)N)C(=O)N[C@@H](CC(N)=O)C(=O)N[C@@H](CCCCN)C(=O)N[C@@H](CC(C)C)C(=O)N[C@@H](CCCNC(=N)N)C(=O)N[C@@H](CCCNC(=N)N)C(=O)N[C@@H](CCC(N)=O)C(=O)N[C@@H](Cc1c[nH]cn1)C(=O)N[C@@H](CO)C(=O)N[C@@H](Cc1ccc(O)cc1)C(N)=O [Example 10] (Palmitoyl-YGRKKRRQRRRKKNRNKLRRQHSY-NH2) | 49.46 |  |  |  |  |
| Ac-YGRKKRRERRRKKDRDKVRREHSY-NH2 [Example 23] | 74.16 |  |  |  |  |
| CC(=O)N[C@@H](Cc1ccc(O)cc1)C(=O)NCC(=O)N[C@@H](CCCNC(=N)N)C(=O)N[C@@H](CCCCN)C(=O)N[C@@H](CCCCN)C(=O)N[C@@H](CCCNC(=N)N)C(=O)N[C@@H](CCCNC(=N)N)C(=O)N[C@@H](CCC(=O)O)C(=O)N[C@@H](CCCNC(=N)N)C(=O)N[C@@H](CCCNC(=N)N)C(=O)N[C@@H](CCCNC(=N)N)C(=O)N[C@@H](CCCCN)C(=O)N[C@@H](CCCCN)C(=O)N[C@@H](CC(=O)O)C(=O)N[C@@H](CCCNC(=N)N)C(=O)N[C@@H](CC(=O)O)C(=O)N[C@@H](CCCCN)C(=O)N[C@H](CC(C)C)C(=O)N[C@@H](CCCNC(=N)N)C(=O)N[C@@H](CCCNC(=N)N)C(=O)N[C@@H](CCC(=O)O)C(=O)N[C@@H](Cc1c[nH]cn1)C(=O)N[C@@H](CO)C(=O)N[C@@H](Cc1ccc(O)cc1)C(N)=O [Example 20, Ac-YGRKKRRERRRKKDRDK(D-L)RREHSY-NH2] (Ac-YGRKKRRERRRKKDRDK[dL]RREHSY-NH2) | 87.36 |  |  |  |  |
| CC(=O)N[C@@H](Cc1ccc(O)cc1)C(=O)NCC(=O)N[C@@H](CCCNC(=N)N)C(=O)N[C@@H](CCCCN)C(=O)N[C@H](CCCCN)C(=O)N[C@H](CCCNC(=N)N)C(=O)N[C@@H](CCCNC(=N)N)C(=O)N[C@@H](CCC(=O)O)C(=O)N[C@@H](CCCNC(=N)N)C(=O)N[C@H](CCCNC(=N)N)C(=O)N[C@@H](CCCNC(=N)N)C(=O)N[C@@H](CCCCN)C(=O)N[C@@H](CCCCN)C(=O)N[C@@H](CC(=O)O)C(=O)N[C@@H](CCCNC(=N)N)C(=O)N[C@@H](CC(=O)O)C(=O)N[C@@H](CCCCN)C(=O)N[C@H](CC(C)C)C(=O)N[C@H](CCCNC(=N)N)C(=O)N[C@@H](CCCNC(=N)N)C(=O)N[C@@H](CCC(=O)O)C(=O)N[C@@H](Cc1c[nH]cn1)C(=O)N[C@@H](CO)C(=O)N[C@@H](Cc1ccc(O)cc1)C(N)=O [Example 26, Ac-YGRK(D-K)(D-R)RER(D-R)RKKDRDK(D-L)(D-R)REHSY-NH2] (Ac-YGRK[dK][dR]RER[dR]RKKDRDK[dL][dR]REHSY-NH2) | 82.39 |  |  |  |  |
| YGRKKRRERRRKKDRNKLRRQHSY [Example 17] |  |  | 1.66 | 23.1 | 2.29 |
| CC(=O)N[C@@H](Cc1ccc(O)cc1)C(=O)NCC(=O)N[C@@H](CCCNC(=N)N)C(=O)N[C@@H](CCCCN)C(=O)N[C@@H](CCCCN)C(=O)N[C@@H](CCCNC(=N)N)C(=O)N[C@@H](CCCNC(=N)N)C(=O)N[C@@H](CCC(=O)O)C(=O)N[C@@H](CCCNC(=N)N)C(=O)N[C@@H](CCCNC(=N)N)C(=O)N[C@@H](CCCNC(=N)N)C(=O)N[C@@H](CCCCN)C(=O)N[C@@H](CCCCN)C(=O)N[C@@H](CC(=O)O)C(=O)N[C@@H](CCCNC(=N)N)C(=O)N[C@@H](CC(=O)O)C(=O)N[C@@H](CCCCN)C(=O)N[C@H](C(=O)N[C@@H](CCCNC(=N)N)C(=O)N[C@@H](CCCNC(=N)N)C(=O)N[C@@H](CCC(=O)O)C(=O)N[C@@H](Cc1c[nH]cn1)C(=O)N[C@@H](CO)C(=O)N[C@@H](Cc1ccc(O)cc1)C(N)=O)C(C)(C)C [Example 25, Ac-YGRKKRRERRRKKDRDKTleRREHSY-NH2] (Ac-YGRKKRRERRRKKDRDK[Tle]RREHSY-NH2) | 86.80 |  |  |  |  |
| Ac-YGRKKRRQRRRKKNRNKLRRQHSY [Example 4] | 85.00 |  |  |  |  |
| YGRKKRRQRRRKKNRDKLRREHSY [Example 16] | 85.15 | 18.8 |  |  |  |
| YGRKKRRQRRRKKNRNKIRRQHSY-NH2 [Example 12] | 58.59 |  |  |  |  |
| CC(C)C[C@H](NC(=O)[C@H](CCCCN)NC(=O)[C@H](CC(N)=O)NC(=O)[C@H](CCCNC(=N)N)NC(=O)[C@H](CC(N)=O)NC(=O)[C@H](CCCCN)NC(=O)[C@H](CCCCN)NC(=O)[C@H](CCCNC(=N)N)NC(=O)[C@H](CCCNC(=N)N)NC(=O)[C@H](CCCNC(=N)N)NC(=O)[C@H](CCC(N)=O)NC(=O)[C@H](CCCNC(=N)N)NC(=O)[C@H](CCCNC(=N)N)NC(=O)[C@H](CCCCN)NC(=O)[C@H](CCCCN)NC(=O)[C@H](CCCNC(=N)N)NC(=O)CNC(=O)[C@@H](N)Cc1ccc(OP(=O)(O)O)cc1)C(=O)N[C@@H](CCCNC(=N)N)C(=O)N[C@@H](CCCNC(=N)N)C(=O)N[C@@H](CCC(N)=O)C(=O)N[C@@H](Cc1c[nH]cn1)C(=O)N[C@@H](CO)C(=O)N[C@@H](Cc1ccc(O)cc1)C(=O)O [Example 3] (H-[pY]GRKKRRQRRRKKNRNKLRRQHSY-OH) |  |  | 1.28 | 7.90 | 1.71 |
| Ac-YGRKKRRERRRKKDRDKLRREHSY-NH2 [Example 18] | 87.20 |  |  |  |  |
| CN[C@@H](Cc1ccc(O)cc1)C(=O)NCC(=O)N[C@@H](CCCNC(=N)N)C(=O)N[C@@H](CCCCN)C(=O)N[C@@H](CCCCN)C(=O)N[C@@H](CCCNC(=N)N)C(=O)N[C@@H](CCCNC(=N)N)C(=O)N[C@@H](CCC(N)=O)C(=O)N[C@@H](CCCNC(=N)N)C(=O)N[C@@H](CCCNC(=N)N)C(=O)N[C@@H](CCCNC(=N)N)C(=O)N[C@@H](CCCCN)C(=O)N[C@@H](CCCCN)C(=O)N[C@@H](CC(N)=O)C(=O)N[C@@H](CCCNC(=N)N)C(=O)N[C@@H](CC(N)=O)C(=O)N[C@@H](CCCCN)C(=O)N[C@@H](CC(C)C)C(=O)N[C@@H](CCCNC(=N)N)C(=O)N[C@@H](CCCNC(=N)N)C(=O)N[C@@H](CCC(N)=O)C(=O)N[C@@H](Cc1c[nH]cn1)C(=O)N[C@@H](CO)C(=O)N[C@@H](Cc1ccc(O)cc1)C(N)=O [Example 9] (H-[NMeY]GRKKRRQRRRKKNRNKLRRQHSY-NH2) | 63.17 | 4.83 |  |  |  |
